Assay results from ChEMBL document CHEMBL3046575, “Synthesis and studies on antidepressant activity of 2,4,6-trihydroxychalcone derivatives” (2012).
The source made the active and inactive calls. The rule behind the calls is not given here.

How the values were obtained:
[1] = system: Mus musculus; test: Antidepressant activity in Mus musculus Kunming (mouse) assessed as reduction in immobility time at 10 mg/kg, ip administered 30 min before test by forced swim test relative to control; assay type: functional; parameters: scale not given: the % may be the effect or the level left; conditions: route intraperitoneal
[2] = system: Mus musculus; test: Antidepressant activity in Mus musculus (mouse) assessed as reduction in immobility time at 10 to 40 mg/kg, ip administered 30 min before test by tail suspension test; assay type: functional, organism-based
[3] = system: Mus musculus; test: Antidepressant activity in Mus musculus Kunming (mouse) assessed as reduction in immobility time at 10 to 40 mg/kg, ip administered 30 min before test by forced swim test; assay type: functional, organism-based

| Structure (SMILES) | Activity [1] [%] | Activity [2] | Activity [3] |
| --- | --- | --- | --- |
| O=C(/C=C/c1cccc(F)c1)c1c(O)cc(O)cc1O | 17.21 |  |  |
| O=C(/C=C/c1ccccc1Cl)c1c(O)cc(O)cc1O | 18.72 |  |  |
| O=C(/C=C/c1ccc(F)cc1)c1c(O)cc(O)cc1O [4-FLUORO-2',4',6'-TRIHYDROXYCHALCONE] | 4.39 |  |  |
| O=C(/C=C/c1ccccc1Br)c1c(O)cc(O)cc1O | 50.04 | Active | Active |
| O=C(/C=C/c1ccccc1F)c1c(O)cc(O)cc1O | 33.55 |  |  |
| O=C(/C=C/c1ccc(Cl)cc1)c1c(O)cc(O)cc1O [4-CHLORO-2',4',6'-TRIHYDROXYCHALCONE] | 27.07 |  |  |
| CNCCC(Oc1ccc(C(F)(F)F)cc1)c1ccccc1 (stereo not given) [FLUOXETINE] | 58.68 |  |  |
| COc1cc(/C=C/C(=O)c2c(O)cc(O)cc2O)ccc1O | 22.89 |  |  |
| O=C(/C=C/c1ccc(O)cc1)c1c(O)cc(O)cc1O [4,2',4',6'-TETRAHYDROXYCHALCONE] | 28.51 |  |  |
| O=C(/C=C/c1cccc(Br)c1)c1c(O)cc(O)cc1O | 26.64 |  |  |
| COc1ccc(/C=C/C(=O)c2c(O)cc(O)cc2O)cc1 [4-METHOXYL-2',4',6'-TRIHYDROXYCHALCONE] | 11.09 |  |  |
| O=C(/C=C/c1cccc(Cl)c1)c1c(O)cc(O)cc1O | 27.57 |  |  |
| O=C(/C=C/c1ccc(Br)cc1)c1c(O)cc(O)cc1O [4-BROMO-2',4',6'-TRIHYDROXYCHALCONE] | 19.29 |  |  |
| COc1ccc(/C=C/C(=O)c2c(O)cc(O)cc2O)cc1OC | 17.57 |  |  |
| O=C(/C=C/c1ccc(Cl)cc1Cl)c1c(O)cc(O)cc1O | 27.43 |  |  |
| Cc1ccc(/C=C/C(=O)c2c(O)cc(O)cc2O)cc1 | 17.35 |  |  |
| Cc1ccc(/C=C/C(=O)c2c(O)cc(O)cc2O)cc1C | 13.31 |  |  |
| O=C(/C=C/c1ccc(O)c(O)c1)c1c(O)cc(O)cc1O [3,4,2',4',6'-PENTAHYDROXYCHALCONE] | 29.09 |  |  |
